According to US20060160906A1, “Polyamine analogs as therapeutic agents for ocular diseases” (priority 2004, published 2006):
Entries after “also recorded” stand apart in the source; their conditions may differ.

Columns and labels:
[1] = system: CNV lesions; experiment: TUNEL staining for apoptosis within CNV lesions; type: in vivo, C57BL/6 mice; conditions: periocular 200 μg on days 7 and 8 after laser
Experimental: On days 7 and 8 after laser-induced rupture of Bruch's membrane, adult female C57BL/6 mice received a periocular injection of 0.2 mg of CGC-11144 or vehicle and then they were euthanized. Eyes were embedded in OCT and 10 μm serial sections were cut through CNV lesions and fixed with 1% paraformaldehyde for 10 minutes at room temperature. TUNEL staining was done using an ApopTag Fluorescein Red Kit (Intergen, Purchase, N.Y.) following the manufacturer's instructions. Adjacent sections were stained for GSA to visualize vascular cells on some sections; TUNEL staining was done to identify cell undergoing apoptosis on adjacent sections.

[2] = system: choroidal neovascularization (CNV) at Bruch's membrane rupture sites; experiment: Mouse model of laser-induced choroidal neovascularization (rupture of Bruch's membrane), CNV area on choroidal flat mounts; type: in vivo, C57BL/6J mice
[3] = system: subretinal neovascularization; experiment: Rhodopsin/VEGF transgenic mice, subretinal neovascularization; type: in vivo, rhodopsin/VEGF transgenic mice (V6 mice); conditions: periocular injection at P7, measured P21; 100 μg CGC-11144, 1 mg CGC-11047, 750 μg CGC-11093
Excerpt: Transgenic mice (V6 mice) in which the rhodopsin promoter drives expression of VEGF165 in photoreceptors have onset of VEGF expression at post-natal day 7 (P7) and soon after begin to develop neovascularization originating from the deep capillary bed that grows through the photoreceptor layer into the subretinal space. (Okamoto N et al., Amer. J. Pathol. 151: 281-91 (1997); Tobe T et al., Invest. Ophthalmol. Vis. Sci. 39: 180-188 (1998)). Hemizygous transgene positive mice were given a periocular injection of 100 μg of CGC-11144 (n=3), 1 mg of CGC-11047 (n=3), 750 μg of CGC-11093 (n=3) or vehicle (n=7) at P7. At post-natal day 21 (P21), mice were euthanized and the amount of subretinal neovascularization was quantified as previously described (Tobe, ibid.). Briefly, mice were anesthetized, perfused with fluorescein-labeled dextran, and the number of neovascular lesions on the outer surface of the retina and their total area were measured on retinal flat mounts by image analysis as described in Example 1.

[4] = system: retinal neovascularization; experiment: Oxygen-induced ischemic retinopathy, retinal neovascularization; type: in vivo, neonatal C57BL/6 mice; conditions: 100 μg CGC-11144, 1 mg CGC-11047, 750 μg CGC-11093
Experimental: Ischemic retinopathy can be produced in neonatal C57BL/6 mice as described (Smith, L. E et al., Invest. Opthalmol. Vis. Sci. 35: 101-111 (1994)) and serves as a model for retinopathy of prematurity (ROP). Post-natal day 7 (P7) mice and their mothers were placed in an airtight incubator and exposed to an atmosphere of 75±3% oxygen for 5 days. Incubator temperature was maintained at 23±2° C. and oxygen was continuously monitored with a PROOX model 110 oxygen controller (Reming Bioinstruments Co., Redfield, N.Y.). At post-natal day 12, mice were placed back in room air and were given a periocular injection of 3 μl containing 100 μg of CGC-11144 (n=4), 1 mg of CGC-11047 (n=4), 750 μg of CGC-11093 (n=4) or vehicle. On post-natal day 17 (P17) the treated and control mice were euthanized and the amount of retinal neovascularization was measured.
For measurement of retinal neovascularization, eyes were removed and fixed in 2% paraformaldehyde in phosphate buffered saline (PBS) for one hour and rinsed twice in 25% sucrose in PBS. Specimens were incubated in 25% sucrose in PBS overnight and embedded in OCT compound (Miles Diagnostics, Elkhart, Ind.),). 10 μm frozen sections were post-fixed for 15 minutes in 0.5% glutaraldehyde in PBS and washed in PBS. Sections were also histochemically stained with biotinylated Griffonia simplicifolia lectin B4 (GSA, Vector Laboratories, Burlingame, Calif.), which selectively binds to vascular cells. Slides were incubated in methanol/H2O2 for 10 minutes at 4° C., washed with 0.05 M Tris-buffered saline, pH 7.6 (TBS), and incubated for 30 minutes in 10% normal porcine serum. Slides were incubated 2 hours at room temperature with biotinylated GSA and after rinsing with 0.05M TBS, they were incubated with avidin coupled to peroxidase (Vector Laboratories, Burlingame, Calif.) for 30 minutes at room temperature. After being washed for 10 minutes with 0.05M TBS, slides were incubated with diaminobenzidine (Research Genetics, Huntsville, Ala.) to give a brown reaction product.
To perform quantitative assessments, 10 μm frozen serial sections were cut from the iris root on one side of the eye to the iris root on the opposite side of the eye and every tenth section was stained with GSA. Retinas were examined with an Axioskop microscope and images were digitized using a 3 CCD color video camera and a frame grabber. Image-Pro Plus software was used to delineate GSA-stained vascular cells above the internal limiting membrane and the total area of staining was measured.
To investigate the effect of these agents on regression of retinal neovascularization, ischemic retinopathy was induced and left untreated until P17, when the baseline amount of retinal neovascularization was measured in one group of mice. From post-natal days 17 to 20 (P17 to P20) the remainder of the mice were given daily periocular injections of 100 μg of CGC-11144 (n=4), 1 mg of CGC-11047 (n=4), 750 μg of CGC-11093 (n=4) or vehicle. On P20 the mice were euthanized and the amount of retinal neovascularization in the treated and control mice was measured as described above.

[5] = system: retinal structure; experiment: Retinal structure in hematoxylin and eosin stained retinal sections; type: in vivo, mice
Experimental: The remaining 10 mice were given an intravitreous injection of 20 μg of CGC-11144 in one eye and vehicle in the fellow eye on days 7 and 10 and then CNV area was measured at each rupture site at 14 days after laser (n=30 in each group). […] After 3 days, ERGs were performed as described in Methods. […] (In FIGS. 3C-3F, retinal sections were stained with hematoxylin and eosin; FIG. 3C and FIG. 3E, 40×; FIG. 3D and FIG. 3F, 100×.)

CCNCCCCNCCCCNCCCCNCCCCNC/C=C/CNCCCCNCCCCNCCCCNCCCCNCC.Cl.Cl.Cl.Cl.Cl.Cl.Cl.Cl.Cl.Cl [CGC-11144]
TUNEL-stained (apoptotic) cells within CNV lesions [1]: many TUNEL-stained cells within CNV lesions; also recorded: several red TUNEL-stained nuclei located within the CNV lesion | area of CNV vs day 7 baseline and vehicle fellow eyes (regression) ([2]; daily periocular injections days 7 to 14, 200 μg CGC-11144, 100 μg DFMO, or both): significant reduction in CNV area; also recorded: significantly less | area of CNV vs controls (no injection or vehicle-injected fellow eye) ([2]; intraocular 20 μg on days 0 and 7 after rupture): significantly less CNV than corresponding controls | decrease in area of CNV compared to vehicle-treated or untreated eyes ([2]; intravitreous 20 μg on days 0 and 7 after rupture, measured day 14): approximately 40% | area of established CNV vs vehicle fellow eyes and vs 7 day baseline (regression) ([2]; intravitreous 20 μg on days 7 and 10, measured day 14): significantly smaller in area | size (area) of CNV lesions vs vehicle ([2]; ip 10 mg/kg twice a week, 2 weeks after rupture of Bruch's membrane, 10 mg/kg): statistically significant reductions in the size of CNV lesions; also recorded: small, but significant reductions in CNV | size (area) of CNV lesions vs vehicle ([2]; ip 20 mg/kg twice a week, surviving mice, 20 mg/kg): small statistically significant reductions in CNV lesion size; also recorded: small, but significant reductions in CNV | decrease in CNV area compared to vehicle-treated eyes ([2]; periocular 200 μg 3 times a week, day 14): 40% | area of established CNV vs vehicle fellow eyes and 7 day baseline (regression) ([2]; periocular 200 μg on days 7, 10 and 13, measured day 14): significant decrease in area of CNV; also recorded: significantly smaller | area of CNV vs controls (no injection or vehicle-injected fellow eye) ([2]; periocular 200 μg three times a week, day 14): significantly less CNV than corresponding controls | amount of CNV on day 14 vs vehicle (suppression) ([2]; single periocular injection at time of rupture, 200 μg CGC-11144, 2 mg CGC-11047, 1.5 mg CGC-11093): significantly reduced the amount of CNV | amount of CNV vs vehicle (duration of effect) ([2]; single periocular injection one week prior to rupture, 200 μg CGC-11144, 2 mg CGC-11047, 1.5 mg CGC-11093): significant reduction of the amount of CNV | amount of CNV vs vehicle (duration of effect) ([2]; single periocular injection two weeks prior to rupture, 200 μg CGC-11144, 2 mg CGC-11047, 1.5 mg CGC-11093): no significant effect | subretinal neovascularization vs vehicle [3]: significantly less subretinal neovascularization | amount of retinal neovascularization at P20 vs vehicle (regression) ([4]; daily periocular injections P17 to P20): significantly less neovascularization | amount of retinal neovascularization at P17 vs vehicle (suppression) ([4]; periocular injection at P12): significantly less | appearance of retinas ([5]; daily periocular 200 μg for 14 days): normal-appearing retinas | retinal structure / morphology ([5]; intravitreous 20 μg): markedly disrupted; also recorded: substantial disruption of the morphology of the retina
